Measurements as given in article PMC9786103, “Potent and Selective Inhibition of CYP1A2 Enzyme by Obtusifolin and Its Chemopreventive Effects” (Pharmaceutics, 2022).

What was measured:
CYP1A2 = target: T1, CYP1A2 (Homo sapiens, UniProt P05177); assay: CYP1A2-mediated phenacetin O-deethylase (POD) activity in pooled human liver microsomes
T1 sequence (P05177 1-516): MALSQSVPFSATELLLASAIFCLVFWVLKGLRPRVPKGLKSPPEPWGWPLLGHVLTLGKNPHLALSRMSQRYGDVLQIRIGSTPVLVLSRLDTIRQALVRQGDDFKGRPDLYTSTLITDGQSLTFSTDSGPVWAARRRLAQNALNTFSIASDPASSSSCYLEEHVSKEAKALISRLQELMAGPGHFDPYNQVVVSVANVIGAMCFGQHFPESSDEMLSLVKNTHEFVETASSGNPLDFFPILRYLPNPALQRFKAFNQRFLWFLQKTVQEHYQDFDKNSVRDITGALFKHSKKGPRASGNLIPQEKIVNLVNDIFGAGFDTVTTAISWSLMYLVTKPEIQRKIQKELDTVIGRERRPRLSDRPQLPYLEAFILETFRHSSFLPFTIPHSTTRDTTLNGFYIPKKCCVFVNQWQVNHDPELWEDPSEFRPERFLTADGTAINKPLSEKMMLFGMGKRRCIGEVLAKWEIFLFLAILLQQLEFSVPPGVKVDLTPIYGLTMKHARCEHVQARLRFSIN
Description: (§1) The inhibitory potential of five major bioactive compounds from Cassiae semen against CYP1A2-mediated phenacetin O-deethylase (POD) activity was evaluated using previously developed methods with minor modifications. Briefly, the compounds were dissolved in methanol. The incubation mixtures containing pHLMs (0.25 mg/mL), phenacetin (100 µM), and inhibitor (0, 0.5, 2, 5, 20, or 50 µM) were pre-incubated at 37 °C for 5 min. An NADPH-generating system (NGS, 1.3 mM β-NADP^+, 3.3 mM G6P, 1.0 U/mL G6PDH, and 3.3 mM magnesium chloride) was introduced after pre-incubation to initiate the reaction, and further incubated for 15 min. The reaction was quenched by the addition of 50 µL ice-cold acetonitrile containing internal standard (IS; 7nM trimipramine). Aliquots of supernatants were analyzed by liquid chromatography–tandem mass spectrometry (LC-MS/MS, LCMS 8060 system, Shimadzu, Kyoto, Japan). All microsomal incubations were repeated three times.
(§2) The inhibitory potential of obtusifolin against the biotransformation of eight P450 probe substrates was examined using previously reported methods with slight changes. The following P450 isoform-specific substrates were used: coumarin (CYP2A6); bupropion (CYP2B6); amodiaquine (CYP2C8); tolbutamide (CYP2C9); omeprazole (CYP2C19); dextromethorphan (CYP2D6); chlorzoxazone (CYP2E1); and midazolam (CYP3A). Mixtures of pooled HLM, P450 substrates, and obtusifolin (0, 0.05, 0.2, 0.5, 2, 5, or 10 µM for CYP1A2; and 0, 0.5, 2, 5, 20, or 50 µM for the other P450 isoforms) were pre-incubated (5 min, 37 °C). NGS was introduced to start the reaction, which was followed by an additional incubation (15 min). Following reaction termination, aliquots of the supernatants were analyzed with LC-MS/MS.
(§3) Reverse phase column (Kinetex XB-C18, 100 × 2.10 mm; Phenomenex, Torrance, CA, USA) and triple-quadrupole mass spectrometer (LCMS 8060, Shimadzu, Kyoto, Japan) with an ultra high-performance LC system (Nexera X2, Shimadzu) analyze all the metabolites. Mobile phases were 0.1% formic acid in water (A) and 0.1% formic acid in acetonitrile (B). The elution condition was as follows: 0–0.5 min (B: 8%), 0.5–5 min (B: 8%→60%), 5–6 min (B: 60%), 6–6.1 min (B: 60%→8%), and 6.1–10 min (B: 8%) for the analysis of metabolites of the nine P450 substrates; and 0–1 min (B: 5%), 1–5 min (B: 5%→90%), and 5.1–7 min (B: 90%→5%) for the analysis of resorufin. Electrospray ionization was performed in the positive- and negative-ion modes at 4.0 and −3.5 kV, respectively. For each metabolite, quantitation was carried out in selected reaction monitoring (SRM) mode using the following precursor-to-product ion transition: m/z 152 > 110 for acetaminophen (CYP1A2), m/z 214 > 186 for resorufin (CYP1A1 and CYP1A2), m/z 163 > 107 for 7-hydroxycoumarin (CYP2A6), m/z 256 > 238 for 6-hydroxybupropion (CYP2B6), m/z 328 > 283 for N-desethylamodiaquine (CYP2C8), m/z 287 > 89 for 5-hydroxytolbutamide (CYP2C9), m/z 362 > 214 for 4-hydroxyomeprazole ([…]), m/z 258 > 157 for dextrorphan (CYP2D6), m/z 184 > 120 for 6-hydroxychlorzoxazone (CYP2E1), m/z 342 > 203 for 1′-hydroxymidazolam (CYP3A), and m/z 295 > 100 for trimipramine (IS).
(§4) WinNonlin software (Pharsight, Mountain View, CA, USA) was used to calculate IC50 values. Based on Lineweaver–Burk double reciprocal plots, secondary plots of Lineweaver–Burk plots versus obtusifolin concentrations, and visual inspection of Dixon plots, the type of inhibition and apparent kinetic parameters for inhibitory activity (Ki) were estimated.

[1] = target: T2, CYP1A2 versus CYP2A6, CYP2B6, CYP2C8, CYP2C9, CYP2C19, CYP2D6, CYP2E1, CYP3A (Homo sapiens, UniProt P05177); assay: as above; details: human, pooled human liver microsomes
T2 sequence (P05177 1-516): T1 sequence (P05177 1-516)
Description: as §1, §2, §3, §4

CYP2A6 = target: T3, CYP2A6 (Homo sapiens, UniProt P11509); assay: Coumarin 7-hydroxylation in human liver microsomes; type: biochemical; details: HLMs
T3 construct: Mixtures of pooled HLM, P450 substrates, and obtusifolin; tissue XenoTech XTreme 200; host or cells: pooled human liver microsomes
T3 sequence (P11509 1-494): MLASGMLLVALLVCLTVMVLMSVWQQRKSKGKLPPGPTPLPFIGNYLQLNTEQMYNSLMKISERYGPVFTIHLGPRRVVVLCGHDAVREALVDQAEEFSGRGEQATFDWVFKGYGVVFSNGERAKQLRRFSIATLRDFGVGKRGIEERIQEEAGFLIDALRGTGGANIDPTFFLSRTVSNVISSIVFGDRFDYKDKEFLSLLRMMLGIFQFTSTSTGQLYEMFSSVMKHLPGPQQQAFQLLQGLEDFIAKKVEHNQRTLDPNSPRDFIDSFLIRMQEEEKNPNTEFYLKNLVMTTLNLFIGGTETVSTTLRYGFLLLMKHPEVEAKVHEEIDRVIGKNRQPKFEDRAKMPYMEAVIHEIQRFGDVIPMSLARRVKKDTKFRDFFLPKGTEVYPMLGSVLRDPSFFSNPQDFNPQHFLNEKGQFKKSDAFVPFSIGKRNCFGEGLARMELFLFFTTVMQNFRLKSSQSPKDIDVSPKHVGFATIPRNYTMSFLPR
Description: The following P450 isoform-specific substrates were used: coumarin (CYP2A6); bupropion (CYP2B6); amodiaquine (CYP2C8); tolbutamide (CYP2C9); omeprazole (CYP2C19); dextromethorphan (CYP2D6); chlorzoxazone (CYP2E1); and midazolam (CYP3A). […] NGS was introduced to start the reaction, which was followed by an additional incubation (15 min). Following reaction termination, aliquots of the supernatants were analyzed with LC-MS/MS.
Reverse phase column (Kinetex XB-C18, 100 × 2.10 mm; Phenomenex, Torrance, CA, USA) and triple-quadrupole mass spectrometer (LCMS 8060, Shimadzu, Kyoto, Japan) with an ultra high-performance LC system (Nexera X2, Shimadzu) analyze all the metabolites. […] For each metabolite, quantitation was carried out in selected reaction monitoring (SRM) mode using the following precursor-to-product ion transition: m/z 152 > 110 for acetaminophen (CYP1A2), m/z 214 > 186 for resorufin (CYP1A1 and CYP1A2), m/z 163 > 107 for 7-hydroxycoumarin (CYP2A6), m/z 256 > 238 for 6-hydroxybupropion (CYP2B6), m/z 328 > 283 for N-desethylamodiaquine (CYP2C8), m/z 287 > 89 for 5-hydroxytolbutamide (CYP2C9), m/z 362 > 214 for 4-hydroxyomeprazole (CYP2C9), m/z 258 > 157 for dextrorphan (CYP2D6), m/z 184 > 120 for 6-hydroxychlorzoxazone (CYP2E1), m/z 342 > 203 for 1′-hydroxymidazolam (CYP3A), and m/z 295 > 100 for trimipramine (IS) [23, 24].

IC50 (CYP1A2): 190 ± 10 nM
inhibition at 15 min, 0.5 µM (CYP1A2; human, pooled human liver microsomes, probe phenacetin (100 µM)): 73.3%
IC50 (CYP2A6): > 50000 nM
SMILES: COc1c(O)c(C)cc2c1C(=O)c1c(O)cccc1C2=O [Obtusifolin, obtusifolin]
selectivity ratio at 15 min [1]: > 150
